# Laboratory results: PubChem BioAssay AID296 (DTP/NCI, 2004)
# Where “and” joins values, the source holds several entries; their conditions need not be identical. Equal values may be shown once. Results filed as inconclusive are left out.
# Tested on: MX-1 breast xenograft, nude mice, tumor weight T/C
# Assay: NCI In Vivo Anticancer Drug Screen. Data for tumor model Human Mammary Carcinoma MX-1 Xenograft (intrarenal inoculation) in NU/NU Swiss (nude) mice
# Conditions: endpoint: mean tumor weight change, higher = larger tumour
# Experimental: The antitumor activity of compounds was measured in mice bearing transplantable tumors. Survival or tumor size were measured and the results are expressed as the measurement made in the treated group (T) divided by the measurement made in the vehicle treated control group (C). The tumor model used in this assay is Human Mammary Carcinoma MX-1 Xenograft (intrarenal inoculation) in NU/NU Swiss (nude) mice
# [1] = dose: 300.0 mg/kg/injection, schedule: Q04DX003 (sc), vehicle: saline with Tween-80
# [2] = dose: 600.0 mg/kg/injection, schedule: Q04DX003 (sc), vehicle: saline with Tween-80
# [3] = dose: 150.0 mg/kg/injection, schedule: Q04DX003 (sc), vehicle: suspension in saline
# [4] = dose: 300.0 mg/kg/injection, schedule: Q04DX003 (sc), vehicle: suspension in saline
# [5] = dose: 600.0 mg/kg/injection, schedule: Q04DX003 (sc), vehicle: suspension in saline
# [6] = dose: 100.0 mg/kg/injection, schedule: Q04DX003 (sc), vehicle: saline
structure (smiles),measurement,setting,value
CC1=CC2C(O)(CC(CO)=CC3C4C(C)(C)C4(OC(=O)c4ccccc4)C(OC(=O)c4ccccc4)C(C)C32O)C1=O (configuration not stated),T/C,"dose: 2.5 mg/kg/injection, schedule: Q04DX003 (sc), vehicle: saline with Tween-80",83 % of control
same,T/C,"dose: 5.0 mg/kg/injection, schedule: Q04DX003 (sc), vehicle: saline with Tween-80",70 % of control
same,T/C,"dose: 10.0 mg/kg/injection, schedule: Q04DX003 (sc), vehicle: saline with Tween-80",90 % of control
C[Si](C)(CCl)N[Si](C)(C)CCl,T/C,[1],50 % of control
same,T/C,[2],35 % of control
CNC(=O)OCc1c(COC(=O)NC)c(-c2ccc(Cl)c(Cl)c2)n2c1Cc1ccccc1C2,T/C,"dose: 300.0 mg/kg/injection, schedule: Q04DX003 (sc), vehicle: distilled water + Tween-80",64 % of control
same,T/C,"dose: 600.0 mg/kg/injection, schedule: Q04DX003 (sc), vehicle: distilled water + Tween-80",70 % of control
same,T/C,"dose: 1200.0 mg/kg/injection, schedule: Q04DX003 (sc), vehicle: distilled water + Tween-80",103 % of control
same,T/C,"dose: 2400.0 mg/kg/injection, schedule: Q04DX003 (sc), vehicle: distilled water + Tween-80",36 % of control
Cc1c2c(ccc3ccccc32)c[n+]2ccccc12,T/C,"dose: 3.13 mg/kg/injection, schedule: Q01DX010 (sc), vehicle: saline",101 % of control
same,T/C,"dose: 6.25 mg/kg/injection, schedule: Q01DX010 (sc), vehicle: saline",82 % of control
same,T/C,"dose: 12.5 mg/kg/injection, schedule: Q01DX010 (sc), vehicle: saline",25 % of control
CC1(C)OCC2OC=CC(=O)C2O1 (configuration not stated),T/C,"dose: 150.0 mg/kg/injection, schedule: Q04DX003 (sc), vehicle: saline with Tween-80",79 % of control
same,T/C,[1],73 % of control
same,T/C,[2],112 % of control
O=C(Nc1cccc2c(OC(=O)C(Cl)Cl)c(N=Nc3ccc(S(=O)(=O)Nc4nccs4)cc3)cc(N=Nc3ccc(S(=O)(=O)Nc4nccs4)cc3)c12)C(Cl)Cl (tested in a mixture with another compound),T/C,[1],111 % of control
same,T/C,[2],103 % of control
same,T/C,"dose: 1200.0 mg/kg/injection, schedule: Q04DX003 (sc), vehicle: saline with Tween-80",109 % of control
same,T/C,"dose: 2400.0 mg/kg/injection, schedule: Q04DX003 (sc), vehicle: saline with Tween-80",109 % of control
CN1C(=O)CC2(CCN(CCCC(=O)c3ccc(F)cc3)CC2)C1=O,T/C,"dose: 37.5 mg/kg/injection, schedule: Q04DX003 (sc), vehicle: suspension in saline",61 % of control
same,T/C,[3],85 % of control
O=C1N[C@@H]([C@H]2CC[C@H](Cl)CN2)C(=O)N[C@H]1[C@H]1CC[C@H](Cl)CN1,T/C,"dose: 0.62 mg/kg/injection, schedule: Q01DX010 (sc), vehicle: water",110 % of control
same,T/C,"dose: 2.5 mg/kg/injection, schedule: Q01DX010 (sc), vehicle: water",72 % of control and 73 % of control
same,T/C,"dose: 2.5 mg/kg/injection, schedule: Q04DX003 (sc), vehicle: water",11 % of control
same,T/C,"dose: 5.0 mg/kg/injection, schedule: Q01DX010 (sc), vehicle: water",30 % of control and 46 % of control
same,T/C,"dose: 5.0 mg/kg/injection, schedule: Q04DX003 (sc), vehicle: water",-62 % of control
same,T/C,"dose: 10.0 mg/kg/injection, schedule: Q04DX003 (sc), vehicle: water",-100 % of control
same,T/C,"dose: 20.0 mg/kg/injection, schedule: Q04DX003 (sc), vehicle: water",-100 % of control
CC1=C(C)C(=O)O[C@@H]([C@](C)(O)[C@]2(O)CC[C@@]3(O)[C@@H]4C[C@H]5O[C@]56CC=CC(=O)[C@]6(C)[C@H]4CC[C@]23C)C1,T/C,"dose: 75.0 mg/kg/injection, schedule: Q04DX003 (sc), vehicle: suspension in saline",112 % of control
same,T/C,[3],83 % of control
same,T/C,[4],83 % of control
same,T/C,[5],95 % of control
CC1CC(C)CC(C)C(O)/C(C#N)=C/C=C/CC(C2CCCC2C(=O)O)OC(=O)CC(O)C(C)C1 (configuration not stated),T/C,"dose: 6.0 mg/kg/injection, schedule: Q04DX003 (sc), vehicle: Klucel (hydroxypropylcellulose) (HPC)",87 % of control
same,T/C,"dose: 12.0 mg/kg/injection, schedule: Q04DX003 (sc), vehicle: Klucel (hydroxypropylcellulose) (HPC)",79 % of control
Oc1ccc(O)cc1,T/C,"dose: 25.0 mg/kg/injection, schedule: Q04DX003 (sc), vehicle: saline",81 % of control
same,T/C,"dose: 50.0 mg/kg/injection, schedule: Q04DX003 (sc), vehicle: saline",71 % of control
same,T/C,[6],75 % of control
O=c1[nH]c(=O)n([C@H]2CCCO2)cc1F,T/C,"dose: 100.0 mg/kg/injection, schedule: Q01DX010 (sc), vehicle: Klucel (hydroxypropylcellulose) (HPC)",112 % of control
same,T/C,"dose: 200.0 mg/kg/injection, schedule: Q01DX010 (sc), vehicle: Klucel (hydroxypropylcellulose) (HPC)",97 % of control
same,T/C,"dose: 800.0 mg/kg/injection, schedule: Q01DX010 (sc), vehicle: Klucel (hydroxypropylcellulose) (HPC)",123 % of control
O=C1NC(O)c2ccccc2O1 (configuration not stated),T/C,[4],25 % of control
same,T/C,[5],30 % of control
same,T/C,"dose: 1200.0 mg/kg/injection, schedule: Q04DX003 (sc), vehicle: suspension in saline",26 % of control
same,T/C,"dose: 2400.0 mg/kg/injection, schedule: Q04DX003 (sc), vehicle: suspension in saline",29 % of control
CN1c2c(nc(N)[nH]c2=O)NCC1CCNc1ccc(C(=O)NC(CCC(=O)O)C(=O)O)cc1 (configuration not stated),T/C,"dose: 100.0 mg/kg/injection, schedule: Q01DX010 (sc), vehicle: saline",83 % of control
same,T/C,"dose: 100.0 mg/kg/injection, schedule: Q01DX010 (sc), vehicle: suspension in saline",60 % of control
same,T/C,"dose: 200.0 mg/kg/injection, schedule: Q01DX010 (sc), vehicle: saline",76 % of control
same,T/C,"dose: 400.0 mg/kg/injection, schedule: Q01DX010 (sc), vehicle: saline",81 % of control
same,T/C,"dose: 400.0 mg/kg/injection, schedule: Q01DX010 (sc), vehicle: suspension in saline",25 % of control
same,T/C,"dose: 800.0 mg/kg/injection, schedule: Q01DX010 (sc), vehicle: saline",62 % of control
O=C(Nc1ccc(C2=NCCN2)cc1)c1ccc(C(=O)Nc2ccc(C3=NCCN3)cc2)c(Cl)c1,T/C,"dose: 75.0 mg/kg/injection, schedule: Q04DX003 (sc), vehicle: water",81 % of control
same,T/C,"dose: 150.0 mg/kg/injection, schedule: Q04DX003 (sc), vehicle: water",49 % of control
same,T/C,"dose: 300.0 mg/kg/injection, schedule: Q04DX003 (sc), vehicle: water",21 % of control
NC(=O)c1csc(C2OC(CO)C(O)C2O)n1 (configuration not stated),T/C,"dose: 200.0 mg/kg/injection, schedule: Q04DX003 (sc), vehicle: water",90 % of control
same,T/C,"dose: 400.0 mg/kg/injection, schedule: Q04DX003 (sc), vehicle: water",96 % of control
same,T/C,"dose: 800.0 mg/kg/injection, schedule: Q04DX003 (sc), vehicle: water",118 % of control
CO[C@H]1C[C@](C)(O)Cc2cc3c(c(O)c21)C(=O)c1c(O)cc2c(c1C3=O)O[C@@H]1O[C@@]2(C)[C@H](O)[C@@H](N(C)C)[C@@H]1O,T/C,"dose: 3.13 mg/kg/injection, schedule: Q01DX010 (sc), vehicle: other",93 % of control
same,T/C,"dose: 6.25 mg/kg/injection, schedule: Q01DX010 (sc), vehicle: other",82 % of control
same,T/C,"dose: 12.5 mg/kg/injection, schedule: Q01DX010 (sc), vehicle: other",43 % of control
CCOC(=O)C(CC(C)C)NC(=O)C(N)Cc1ccc(N(CCCl)CCCl)cc1 (configuration not stated),T/C,"dose: 60.0 mg/kg/injection, schedule: Q04DX003 (sc), vehicle: water",-100 % of control
Nc1ncnc2c1ncn2C1OC(CO)C(O)C1O (configuration not stated),T/C,"dose: 38.0 mg/kg/injection, schedule: Q04DX003 (sc), vehicle: saline",84 % of control
same,T/C,[6],120 % of control
same,T/C,"dose: 200.0 mg/kg/injection, schedule: Q04DX003 (sc), vehicle: saline with Tween-80",100 % of control
same,T/C,"dose: 200.0 mg/kg/injection, schedule: Q04DX003 (sc), vehicle: saline",72 % of control and 85 % of control
same,T/C,"dose: 400.0 mg/kg/injection, schedule: Q04DX003 (sc), vehicle: saline with Tween-80",84 % of control
same,T/C,"dose: 400.0 mg/kg/injection, schedule: Q04DX003 (sc), vehicle: saline",91 % of control
same,T/C,"dose: 800.0 mg/kg/injection, schedule: Q04DX003 (sc), vehicle: saline with Tween-80",217 % of control
same,T/C,"dose: 1600.0 mg/kg/injection, schedule: Q04DX003 (sc), vehicle: saline with Tween-80",104 % of control
same,T/C,"dose: 1600.0 mg/kg/injection, schedule: Q04DX003 (sc), vehicle: saline",52 % of control
COc1ccc(CC2C(=O)NC(C)C(=O)N(C)C3Cc4ccc(cc4)Oc4cc(ccc4O)CC(C(=O)NC(C)C(=O)NC(C)C(=O)N2C)N(C)C3=O)cc1 (configuration not stated),T/C,"dose: 8.0 mg/kg/injection, schedule: Q04DX003 (sc), vehicle: saline with Tween-80",28 % of control and 44 % of control and 47 % of control
same,T/C,"dose: 16.0 mg/kg/injection, schedule: Q04DX003 (sc), vehicle: saline with Tween-80",20 % of control and 26 % of control and 43 % of control
same,T/C,"dose: 32.0 mg/kg/injection, schedule: Q04DX003 (sc), vehicle: saline with Tween-80",6 % of control and 18 % of control
